Read-outs that look alike come from different tables or passages of the source.
Experiments:
[1] = cited from earlier work; for safety / side effect profile compared to ibuprofen: published studies, incl. pediatric population
[2] = system: Hereditary Spastic Paraparesis, homozygous TECPR2 mutations; assay: Treatment of a patient with Hereditary Spastic Paraparesis (Example 2); type: in vivo; details: human patient, daily oral doses, after 30 days of treatment
Protocol: A human patient is tested and found to be homozygous for TECPR2 mutations and suffering from neurodegenerative issues related to Hereditary Spastic Paraparesis. The patient is given daily oral doses of dexibuprofen to reduce the effects of the disease.

[3] = in vivo; cited from earlier work

Row | Structure (SMILES) | safety profile compared to acetaminophen ([1]; in vivo) | safety / side effect profile compared to ibuprofen [1] | safety / side effect profile compared to ibuprofen ([1]; listed as dexibuprofen) | neurodegenerative issues relating to TECPR2 mutations [2] | crossing of the blood brain barrier (BBB) [3]
1 | CC(C)Cc1ccc([C@H](C)C(=O)O)cc1 [Dexibuprofen, (S)-a-methyl-4-(2-methylpropyl)benzeneacetic acid] | superior safety profile to acetaminophen | extremely similar to ibuprofen | did not note safety differences | reduced neurodegenerative issues | crosses the blood brain barrier
2 | CC(C)Cc1ccc(C(C)C(=O)O)cc1 (stereo not drawn) [ibuprofen] |  |  |  |  | crosses the blood brain barrier

Reference: patent publication US20240173279A1, “Method of Treatment for Autophagy Diseases by Administration of Dexibuprofen and Use of Dexibuprofen for Preparation of a Medicament for Same” (JEM THERAPEUTICS PBC, priority 2021, published 2024)
